“Also recorded” adds a separate entry of the source. Read-outs that look alike come from different tables or passages of the source. Residues, ends and D or L forms follow the SMILES beside them.
How the values were obtained:
[1] = target: T1, cloned human B1 bradykinin receptor in transiently transfected COS-7 cells (COS 33E9) (Homo sapiens, UniProt P46663); test: Displacement of 1 nM [3H]des-Arg10kallidin, membrane binding assay, COS 33E9; details: for affinity for / displacement of [3H]des-Arg10kallidin from the cloned receptor, in words: cloned B1 receptor expressed in COS-7 cells
T1 construct: the full-length open reading frame of the B1 DNA (encoding a protein of about 40.4 kDa =about base 209 to about base 1267); expressed in transfected cells; host or cells: COS-7 cells, transient electroporation of clone 33E9 (pcDNA3 library vector)
T1 sequence (P46663 1-353): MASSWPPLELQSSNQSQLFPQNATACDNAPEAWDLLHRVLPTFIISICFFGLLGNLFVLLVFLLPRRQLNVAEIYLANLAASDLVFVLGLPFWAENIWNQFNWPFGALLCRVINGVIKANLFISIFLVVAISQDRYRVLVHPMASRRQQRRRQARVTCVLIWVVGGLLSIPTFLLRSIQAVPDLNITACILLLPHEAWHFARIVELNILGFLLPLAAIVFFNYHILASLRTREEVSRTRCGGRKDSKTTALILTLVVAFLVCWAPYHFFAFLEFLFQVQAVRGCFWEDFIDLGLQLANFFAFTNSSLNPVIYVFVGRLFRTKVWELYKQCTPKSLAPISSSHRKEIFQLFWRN
Procedure: Transient expression of the cloned B1 bradykinin receptor in COS-7 cells was accomplished by electroporation using a Biorad Gene Pulser. […] Binding assays were performed at room temperature for 45 minutes. Reactions were terminated by filtration using an Inotech cell harvester onto glass fiber filters (Inotech) that had been briefly soaked in 0.3% polyethyleneimine. The filters were washed five times with 1 ml per well of cold PBS and counted in a liquid scintillation counter. Alternatively, reactions were collected using a Tomtec cell harvester 96 onto 0.3% polyethyleneimine presoaked glass fiber filters (Pharmacia, printed filtermat for use with the 1205 Betaplate). The filter was washed five times with a total of 10 ml per well of cold 1× PBS, dried and sealed in a bag (Pharmacia) containing scintillation fluid. Counting was accomplished using a LKB1205 Betaplate liquid scintillation counter.

[2] = target: T2, B1 receptor in IMR-90 cells (Homo sapiens, UniProt P46663); test: Displacement of 1 nM [3H]des-Arg10kallidin, membrane binding assay, IMR-90
T2 construct: 33E9) with the B1 receptor in IMR-90 cells (IMR-90); endogenous in cells; host or cells: IMR-90 cells (ATCC CCL 186)
T2 sequence (P46663 1-353): T1 sequence (P46663 1-353)

IMR-90 cells = test: IL-1beta treatment of IMR-90 cells, number of B1 bradykinin receptors; assay type: cell-based, human
[3] = target: T3, B1 bradykinin receptor present in human aorta (Homo sapiens, UniProt P46663); test: Affinity at B1 bradykinin receptor present in human aorta; assay type: binding; details: R.W.R, unpublished data
T3 construct: The B1 bradykinin receptor present in human aorta; from tissue; host or cells: human aorta
T3 sequence (P46663 1-353): T1 sequence (P46663 1-353)

[4] = target: cloned human B1 bradykinin receptor (clone 33E9) (human) (UniProt P46663); test: displacement of 1 nM [3H]des-Arg10kallidin, membrane binding assay, COS-7 cells transiently transfected with clone 33E9
[5] = target: T4, B1 bradykinin receptor in IMR-90 cells (human, UniProt P46663 1-353); test: displacement of 1 nM [3H]des-Arg10kallidin, membrane binding assay, IMR-90 cells
T4 construct: whole, on cells; Endogenous receptor; also called B1 receptor expressed in IMR-90 cells
T4 sequence (looked up): T1 sequence (P46663 1-353)
Procedure: Binding assays were performed at room temperature for 45 minutes. Reactions were terminated by filtration using an Inotech cell harvester onto glass fiber filters (Inotech) that had been briefly soaked in 0.3% polyethyleneimine. The filters were washed five times with 1 ml per well of cold PBS and counted in a liquid scintillation counter. Alternatively, reactions were collected using a Tomtec cell harvester 96 onto 0.3% polyethyleneimine presoaked glass fiber filters (Pharmacia, printed filtermat for use with the 1205 Betaplate). The filter was washed five times with a total of 10 ml per well of cold 1× PBS, dried and sealed in a bag (Pharmacia) containing scintillation fluid. Counting was accomplished using a LKB₁₂₀₅ Betaplate liquid scintillation counter.
The IC₅₀'s were determined by the displacement of 1 nM [³H]des- Arg¹⁰kallidin in the membrane binding assay described above.

B1 receptor = target: T5, B1 receptor (Homo sapiens, UniProt P46663); test: Electrophysiology of cRNA-injected Xenopus oocytes monitoring the Ca2+ sensitive Cl- channel; assay type: cell-based; details: oocytes injected with cRNA of strongest positive pool
T5 construct: expressed in transfected cells; host or cells: Xenopus laevis oocytes injected with cRNA from a pool of about 800 library clones
T5 sequence (P46663 1-353): T1 sequence (P46663 1-353)

[6] = displacement of 1 nM [3H]des-Arg10kallidin, membranes of transiently transfected COS-7 cells, read-out: IC50, COS 33E9
[7] = displacement of 1 nM [3H]des-Arg10kallidin, IMR-90 membranes, read-out: IC50, IMR-90

Compound	IC50 [1]	IC50 [2]	IC50 [1, 6]	IC50 [2, 7]	further results
CC[C@H](C)[C@H](NC(=O)[C@H](Cc1ccc(O)cc1)NC(=O)[C@@H]1CCCN1C(=O)[C@H](CCCNC(=N)N)NC(=O)[C@H](CCCNC(=N)N)NC(C)=O)C(=O)N[C@@H](CC(C)C)C(=O)O [Acetylated Neurotensin(8-13)]	> 10 µM	> 10 µM	–	–	–
CC[C@H](C)[C@H](NC(=O)[C@H](Cc1ccc(O)cc1)NC(=O)[C@@H](NC(=O)[C@H](CCCNC(=N)N)NC(=O)[C@@H](N)CC(=O)O)C(C)C)C(=O)N[C@@H](Cc1cnc[nH]1)C(=O)N1CCC[C@H]1C(=O)N[C@@H](Cc1ccccc1)C(=O)O [Angiotensin II]	–	–	> 10 µM	> 10 µM	–
NC(=O)CC[C@@H]1NC(=O)[C@H](Cc2ccccc2)NC(=O)[C@H](Cc2ccc(O)cc2)NC(=O)[C@@H](N)CSSC[C@@H](C(=O)N2CCC[C@H]2C(=O)N[C@@H](CCCN=C(N)N)C(=O)NCC(N)=O)NC(=O)[C@H](CC(N)=O)NC1=O [Arg Vasopressin]	> 10 µM	> 10 µM	–	–	–
N=C(N)NCCC[C@H](N)C(=O)N1CCC[C@H]1C(=O)N1CCC[C@H]1C(=O)NCC(=O)N[C@@H](Cc1ccccc1)C(=O)N[C@@H](CO)C(=O)N1CCC[C@H]1C(=O)O [Bradykinin(1-7)] (H-RPPGFSP-OH)	> 10 µM	> 10 µM	–	–	–
N=C(N)NCCC[C@H](NC(=O)[C@H](Cc1ccccc1)NC(=O)[C@@H]1CCCN1C(=O)[C@H](CO)NC(=O)[C@H](Cc1ccccc1)NC(=O)CNC(=O)[C@@H]1CCCN1C(=O)[C@@H]1CCCN1)C(=O)O [Bradykinin(2-9)] (H-PPGFSPFR-OH; N-terminus and C-terminus assumed)	–	–	> 10 µM	> 10 µM	–
NC(N)=NCCC[C@H](NC(=O)[C@H](Cc1ccccc1)NC(=O)[C@@H]1CCCN1C(=O)[C@H](CO)NC(=O)[C@H](Cc1ccccc1)NC(=O)CNC(=O)[C@@H]1CCCN1C(=O)[C@@H]1CCCN1C(=O)[C@@H](N)CCCN=C(N)N)C(=O)O [Bradykinin] (H-RPPGFSPFR-OH)	> 10 µM	> 10 µM	–	–	–
CC[C@H](C)[C@H](NC(=O)[C@H](CCCNC(=N)N)NC(=O)[C@H](CCCNC(=N)N)NC(=O)[C@H](CC(C)C)NC(=O)[C@H](Cc1ccccc1)NC(=O)CNC(=O)CNC(=O)[C@@H](N)Cc1ccc(O)cc1)C(=O)N[C@@H](CCCNC(=N)N)C(=O)N1CCC[C@H]1C(=O)N[C@@H](CCCCN)C(=O)N[C@@H](CC(C)C)C(=O)N[C@@H](CCCCN)C(=O)N[C@@H](Cc1c[nH]c2ccccc12)C(=O)N[C@@H](CC(=O)O)C(=O)N[C@@H](CC(N)=O)C(=O)N[C@@H](CCC(N)=O)C(=O)O [Dynorphin(1-17)]	> 7 µM	> 7 µM	–	–	–
CC[C@H](C)[C@H](NC(=O)[C@H](CC(=O)O)NC(=O)[C@H](CC(C)C)NC(=O)[C@H](Cc1cnc[nH]1)NC(=O)[C@@H]1CSSC[C@H](N)C(=O)N[C@@H](CO)C(=O)N[C@H]2CSSC[C@H](NC(=O)[C@H](CCC(=O)O)NC(=O)[C@H](CCCCN)NC(=O)[C@H](CC(=O)O)NC(=O)[C@H](CCSC)NC(=O)[C@H](CC(C)C)NC(=O)[C@H](CO)NC(=O)[C@H](CO)NC2=O)C(=O)N[C@@H](C(C)C)C(=O)N[C@@H](Cc2ccc(O)cc2)C(=O)N[C@@H](Cc2ccccc2)C(=O)N1)C(=O)N[C@H](C(=O)N[C@@H](Cc1c[nH]c2ccccc12)C(=O)O)[C@@H](C)CC [Endothelin I]	–	–	> 1 µM	> 1 µM	–
NC(N)=NCCC[C@@H](N)C(=O)N[C@@H](CCCN=C(N)N)C(=O)N1CCC[C@H]1C(=O)N1C[C@H](O)C[C@H]1C(=O)NCC(=O)N[C@@H](Cc1cccs1)C(=O)N[C@@H](CO)C(=O)N1Cc2ccccc2C[C@@H]1C(=O)N1[C@H](C(=O)N[C@@H](CCCN=C(N)N)C(=O)O)C[C@@H]2CCCC[C@@H]21 [Hoe 140]	–	–	> 10 µM	> 10 µM	–
CC(C)C[C@H](NC(=O)[C@H](Cc1ccccc1)NC(=O)CNC(=O)CNC(=O)[C@@H](N)Cc1ccc(O)cc1)C(=O)O [Leu-Enkephalin]	> 10 µM	> 10 µM	–	–	–
CC[C@H](C)[C@@H]1NC(=O)[C@H](Cc2ccc(O)cc2)NC(=O)[C@@H](N)CSSC[C@@H](C(=O)N2CCC[C@H]2C(=O)N[C@@H](CC(C)C)C(=O)NCC(N)=O)NC(=O)[C@H](CC(N)=O)NC(=O)[C@H](CCC(N)=O)NC1=O [Oxytocin]	–	–	> 10 µM	> 10 µM	–
CSCC[C@H](NC(=O)[C@H](CC(C)C)NC(=O)CNC(=O)[C@H](Cc1ccccc1)NC(=O)[C@H](Cc1ccccc1)NC(=O)[C@H](CCC(N)=O)NC(=O)[C@H](CCC(N)=O)NC(=O)[C@@H]1CCCN1C(=O)[C@H](CCCCN)NC(=O)[C@@H]1CCCN1C(=O)[C@@H](N)CCCN=C(N)N)C(N)=O [Substance P]	–	–	> 10 µM	> 10 µM	–
IL-1β: cytokine IL-1β (R & D Systems)	–	–	–	–	stimulation of the number of B1 bradykinin receptors (IMR-90 cells): approximately 7 fold
[des-Arg^10],[3,4-^3H(N)]-kallidin [[^3H]des-Arg^10kallidin]	–	–	–	–	affinity for / displacement of [3H]des-Arg10kallidin from the cloned receptor, in words [1]: high affinity binding
des-Arg^9Leu^8bradykinin	–	–	–	–	affinity for / displacement of [3H]des-Arg10kallidin from the cloned receptor, in words [1]: high affinity binding
des-Arg^9bradykinin	–	–	–	–	affinity for / displacement of [3H]des-Arg10kallidin from the cloned receptor, in words [1]: relatively low affinity; affinity for the B1 receptor in IMR-90 cells, in words ([2]; IMR-90 cells): relatively low affinity; affinity [3]: > 1000 nM
des-Arg^10HOE 140 (peptide)	–	–	–	–	IC50 [4]: 0.094 µM; IC50 [5]: 0.04 µM
des-Arg^10Leu^9kallidin	–	–	–	–	affinity for / displacement of [3H]des-Arg10kallidin from the cloned receptor, in words [1]: high affinity binding; also recorded: effectively displaces; block of des-Arg10kallidin response (B1 receptor): blocked
des-Arg^10kallidin	–	–	–	–	agonist response of Ca2+ sensitive Cl- channel (B1 receptor): produced a response
